The subject of data set [1] is male dd-strain rats. The data set can be described thus: Acute toxicity test (minimum lethal dose). The format is in vivo. The settings on record: mortality for 7 days. The procedure:
Groups of male dd-strain rats (each group consisting of five rats) weighing 20±1 g were used. The compounds of the present invention were administered orally (po: 0.3 mg/g) or intraperitoneally (ip: 0.1 mg/g). The MLD (minimum lethal dose) was calculated from the mortality for 7 days after the administration to obtain the results given in Table 1.

The subject of data set [2] is isolated ileum of guinea-pig. In words: Test for anticholinergic effects on the isolated ileum of guinea-pig (acetylcholine contraction, in vitro). Also on record: species or system guinea-pig (male Hartly-strain). Conditions: Cavia porcellus, 0.05 h; depressing ratio of 80% or more of acetylcholine contraction; compound 3 minutes before; read-out: Anticholinergic activity: MED (minimum effective dose). A digest of the protocol:
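Ileum segments from male Hartley guinea-pigs (~250 g), 2-3 cm, in Tyrode's at 32±1° C, aerated. Contraction evoked by acetylcholine (0.1 ml of 10^-3 g/ml), recorded by kymograph, before and 3 minutes after test compound addition.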

Data set [3] concerns isolated ileum of guinea-pig. The data set can be described thus: Test for antihistaminergic effects on the isolated ileum of guinea-pig (histamine contraction, in vitro). Also on record: species or system guinea-pig (male Hartly-strain). Conditions: Cavia porcellus, 0.05 h; depressing ratio of 80% or more of histamine contraction; read-out: Antihistaminergic activity: MED. The essentials:
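Ileum segments from male Hartley guinea-pigs (~250 g) suspended in Tyrode's solution at 32±1 °C, contractions recorded on kymograph. Test compound given 3 min before agonist challenge with 0.1 ml histamine at 5×10^-3 g/l.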

Data set [4] has as its system blood platelets (platelet-rich plasma). The data set can be described thus: Test for the inhibition of platelet aggregation (collagen-induced, platelet-rich plasma). Conditions: Oryctolagus cuniculus, Platelet, 0.05 h; depressing ratio of 50% of collagen-induced aggregation; compound 3 minutes before; read-out: Antiplatelet aggregation activity: MED. The format is cell-based, male white rabbits. A digest of the protocol:
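Citrated carotid blood from male white rabbits (2–2.5 kg) spun at 1,000 rpm for 15 min to give PRP. Compound added 3 min before collagen, dosed to give 50% aggregation in the presence of 100 γ/ml aspirin; aggregation followed by aggregometer, activity scored as 50% depression versus collagen alone.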

Data set [5] can be described thus: Antiasthmatic activity. The settings on record: po; read-out: Antiasthmatic activity: MED. The format is in vivo.

Turning to `CCc1ccc2c(c1)C(NC1CN3CCC1CC3)c1ccccc1CO2` (stereo not drawn) [Compound 21, 2-ethyl-11-(3-quinuclidinyl)amino-6,11-dihydrodibenz[b,e]oxepin], the “Acute toxicity: MLD (minimum lethal dose)” value (“Acute toxicity: MLD” below) worked out at 100 mg/kg in data set [1] (ip) and 300 mg/kg in data set [1] (po). Moreover, the minimal effective concentration in data set [2] is 0.1 µg/mL; in data set [3], 0.1 µg/mL; in data set [4] it was 50 µg/mL. In data set [5], the minimal effective dose was determined as 25 mg/kg.

For `Fc1ccc2c(c1)C(NC1CN3CCC1CC3)c1ccccc1CO2` (stereo not drawn) [Compound 22, 2-fluoro-11-(3-quinuclidinyl)amino-6,11-dihydrodibenz[b,e]oxepin], the “Acute toxicity: MLD” value in data set [1] (ip) stood at 100 mg/kg; in data set [1] (po) it was 300 mg/kg. Also, the minimal effective concentration is 0.3 µg/mL in data set [2], 0.3 µg/mL in data set [3] and 100 µg/mL in data set [4]. Further, the minimal effective dose in data set [5] was 50 mg/kg.

On to `Clc1ccc2c(c1)C(NC1CN3CCC1CC3)c1ccccc1CO2` (stereo not drawn) [Compound 23, 2-chloro-11-(3-quinuclidinyl)amino-6,11-dihydrodibenz[b,e]oxepin], for which the results for the “Acute toxicity: MLD” value in data set [1] (ip) and in data set [1] (po) were 100 mg/kg and 300 mg/kg, respectively. Further, the minimal effective concentration in data set [2] came out at 1 µg/mL; in data set [3], 0.3 µg/mL; in data set [4] it was 100 µg/mL. Also, in data set [5], the minimal effective dose worked out at 50 mg/kg.

Turning to `COc1ccc2c(c1)C(NC1CN3CCC1CC3)c1ccccc1CO2` (stereo not drawn) [Compound 24, 2-methoxy-11-(3-quinuclidinyl)amino-6,11-dihydrodibenz[b,e]oxepin], the “Acute toxicity: MLD” value in data set [1] (ip) is 100 mg/kg; in data set [1] (po), 200 mg/kg. The minimal effective concentration in data set [2] is 0.3 µg/mL; in data set [3], 0.1 µg/mL; in data set [4], 100 µg/mL. The minimal effective dose in data set [5] was 50 mg/kg.

On to `CCN1CCCC1CNC1c2ccccc2COc2ccc(C)cc21` (stereo not drawn) [Compound 28, 2-methyl-11-{(1-ethyl-2-pyrrolidinyl)methyl}-amino-6,11-dihydrodibenz[b,e]oxepin], for which the results for the “Acute toxicity: MLD” value in data set [1] (ip) and in data set [1] (po) were 100 mg/kg and 300 mg/kg, respectively. Also, the minimal effective concentration is 1 µg/mL in data set [2], 1 µg/mL in data set [3] and 50 µg/mL in data set [4]. Also, in data set [5], the minimal effective dose stood at 25 mg/kg.

As to `CCc1ccc2c(c1)C(NCCN1CCCCC1)c1ccccc1CO2` (stereo not drawn) [Compound 35, 2-ethyl-11-(2-piperidinoethyl)amino-6,11-dihydrodibenz[b,e]oxepin], the entries for the “Acute toxicity: MLD” value in data set [1] (ip) and in data set [1] (po) were greater than 100 mg/kg and 300 mg/kg, respectively. Also, the minimal effective concentration came to 3 µg/mL in data set [2], 1 µg/mL in data set [3] and 20 µg/mL in data set [4]. Besides, the minimal effective dose in data set [5] stood at 25 mg/kg.

Regarding `CCc1ccc2c(c1)C(N1CCN(CCO)CC1)c1ccccc1CO2` (stereo not drawn) [Compound 38, 2-ethyl-11-{4-(2-hydroxyethyl)-1-piperazinyl}-6,11-dihydrodibenz[b,e]oxepin], the results for the “Acute toxicity: MLD” value in data set [1] (ip) and in data set [1] (po) were greater than 100 mg/kg and greater than 300 mg/kg, respectively. The values for the minimal effective concentration in data set [2], in data set [3] and in data set [4] were 1 µg/mL, 1 µg/mL and 100 µg/mL, respectively. In addition, the minimal effective dose in data set [5] came out at 100 mg/kg.

For `OCCN1CCN(C2c3ccccc3COc3ccc(F)cc32)CC1` (stereo not drawn) [Compound 39, 2-fluoro-11-{4-(2-hydroxyethyl)-1-piperazinyl}-6,11-dihydrodibenz[b,e]oxepin], the “Acute toxicity: MLD” value in data set [1] (ip) is 100 mg/kg; in data set [1] (po), greater than 300 mg/kg. The minimal effective concentration came to 1 µg/mL in data set [2], 10 µg/mL in data set [3] and 50 µg/mL in data set [4]. Further, the minimal effective dose in data set [5] is 100 mg/kg.

Values taken from patent US4396550A, “Dibenz [b,e] oxepin derivatives” (Kyowa Hakko Kogyo Co., Ltd., priority 1980, dated 1983).
